Measured values: PMC5947712, “High‐Throughput Kinetic Analysis for Target‐Directed Covalent Ligand Discovery” (Angewandte Chemie (International Ed. in English), 2018)

Tests used:
Cdk2(C177A) = target: T1, Cdk2(C177A) (Homo sapiens, UniProt P24941, C177A); test: Intact protein mass spectrometry of labelling, Cdk2(C177A); format: binding
T1 construct: made in house; host or cells: E. coli Tuner(DE3)
Experimental: (§1) Hs!Cyclin!A2!F!5’![…]!
(§2) Hs!Cyclin!A2!R!5’![…]!
(§3) Sc!CAK1!R!5’!GAATTCttatgggcttttctaattcttgcaag!
GSTBCdk2" and" GSTBcyclin" A2:! Harvested! cells! were! resuspended! in! 50! mM! HEPES! buffer! (pH7.5)! containing! 150! mM! NaCl,!
10!mM!MgCl2,!2!mM!dithiothreitol!(DTT),!0.5!mg!mLR1!lysozyme,!and!0.01%!Triton!XR100!at!4!˚C!and!incubated!for!30!minutes.!
After! sonication! and! centrifugation! (40! min,! 16000! g),! the! supernatant! was! incubated! for! 1! h! with! glutathioneRSepharose!
beads,! washed! with! lysis! buffer! and! the! desired! protein! eluted! with! 10! mM! GSH! (100! mM! Tris,! pH! 8).! After! incubation! the! deR
sired! protein! was! cleaved! from! the! GST! tag! with! PreScission! protease! (100:1)! at! 4 °C! for! 4! hours,! the! cleaved! GST! tag! was!
removed! with! glutathioneRSepharose! beads.! Cdk2! was! concentrated! and! then! loaded! onto! a! Superdex! 75! (16/60)! column,!
eluting! with! 100! mM! phosphate! buffer! containing! 50! mM! DTT.! Purified! Cdk2! was! concentrated! to! 10! mg! mLR1!and! stored! at!–
80! ˚C.! Cyclin! A2! was! purified! by! glutathioneRSepharose! affinity! as! described! above! with! the! following! amendments:! 100! mM!
MgCl2!was! added! after! GST! cleavage! to! minimise! protein! aggregation! and! gel! filtration! was! performed! with! 50! mM! […]
(§4) labelling! reached! completion! (as! monitored! by! fluorescence! quench! assay! and/or! intact! protein! mass! spectrometry).! […]

Cdk2(WT) = Cdk2(WT) (Homo sapiens, UniProt P24941); test: Intact protein mass spectrometry of labelling, Cdk2(WT); format: binding; set-up: made in house; host or cells: E. coli Tuner(DE3)
Experimental: Supplementary, Figure, S6!|!Acrylamide, 1,selectivity, profile.!Exponential! regressions! from!kinetic! analysis! of! acrylamide!1!
(0.5!mM)!in!reaction!with!various!thiols!(5!µM).!
Supplementary, Figure, S7!|!Cdk2(WT),is, mono%modified, by, acrylamide, 1.!(a)!Cdk2(WT)! was! phosphorylated! with! CAK1.!
pCdk2(WT)! (5! µM)! was! then! incubated! with! acrylamide!1!(0.5! mM)! in! 100! mM! phosphate! buffer!(pH! 8.0)! at! 4! ˚C! for! 18! hours.!
IntactRprotein! mass! spectra! show! complete! phosphorylation! (ΔMW! =! 80! Da)! and! complete! acrylamide! labeling! (ΔMW! =!
288!Da).!(b)!Cdk2(WT)! (5! µM)! was! incubated! with! acrylamide!1!(0.5! mM)! in! 100! mM! phosphate! buffer! (pH! 8.0)!in! the!presR
ence! or! absence! of! GSH! (1! mM)! at! room! temperature.!The! degree! of! labelling! was! monitored! by!intactRprotein! mass!specR
trometry!after!6.25!and!24!h.!The!presence!of!1!mM!GSH!was!found!to!slow!the!rate!of!Cdk2!modification!by!a!factor!of!~2.! […]
as §1, §2, §3
GSTBCdk2" and" GSTBcyclin" A2:! Harvested! cells! were! resuspended! in! 50! mM! HEPES! buffer! (pH7.5)! containing! 150! mM! NaCl,! […]
as §4

modification of Cdk2(C177A) by intact protein mass spectrometry (Cdk2(C177A)): unaffected | factor by which 1 mM GSH slows the rate of Cdk2 modification (Cdk2(WT); Cdk2(WT) 5 µM, compound 0.5 mM, pH 8.0, room temperature, monitored after 6.25 and 24 h): ~ 2 | modification of Cdk2(WT) by intact protein mass spectrometry (Cdk2(WT); even in the presence of millimolar glutathione): mono‐modifies
SMILES: C=CC(=O)N1CCN(C(=O)OC(C)(C)C)c2ccccc21 [Acrylamide 1]
